Experimental data from PubChem BioAssay AID1421 (Emory University Molecular Libraries Screening Center, 2008).
“And” between values parts separate entries of the source, which are not always exact repeats. Equal entries are not always repeated. The source made the active and inactive calls. No rule for the calls is given here.

Biological target: Prostaglandin E2 receptor EP2 subtype (Homo sapiens) (UniProt P43116)
Assay: compounds shifting PGE2 potency at EP2 – cell-based, human EP2, PGE2 EC50 shift, dose response (AID 1421)
Conditions: EP2-expressing cells, PGE2 EC50 shift by compound

Prostaglandin E2 receptor EP2 subtype (Homo sapiens), sequence (P43116 whole entry, looked up): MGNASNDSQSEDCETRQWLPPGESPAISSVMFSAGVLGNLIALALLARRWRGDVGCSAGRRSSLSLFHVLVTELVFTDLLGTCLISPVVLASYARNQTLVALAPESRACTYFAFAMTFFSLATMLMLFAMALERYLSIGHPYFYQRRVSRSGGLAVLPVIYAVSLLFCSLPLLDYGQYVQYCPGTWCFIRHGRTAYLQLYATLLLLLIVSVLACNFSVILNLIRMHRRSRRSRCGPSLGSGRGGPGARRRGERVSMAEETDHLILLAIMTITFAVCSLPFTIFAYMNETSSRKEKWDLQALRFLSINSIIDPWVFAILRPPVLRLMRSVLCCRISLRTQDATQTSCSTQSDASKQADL

Row | SMILES | outcome
1 | Cc1ccccc1C(=O)Nc1ccccc1N1CCCCC1 | active
2 | CCSc1cc(N2CCOCC2)nc(-c2ccccc2)n1 | active
3 | COc1ccc(S(=O)(=O)N2c3cc(C)ccc3OCC2C(C)(C)C)cc1 (centres undefined) | active
4 | Fc1ccc(Oc2nc(-c3ccccc3)nnc2C(F)(F)F)cc1 | active
5 | CCc1nc(N2CCCCC2)c2oc3ccccc3c2n1 | active
6 | Cc1ccc(C(=O)Nc2ccccc2N2CCCCC2)cc1[N+](=O)[O-] | active
7 | CC(C)OC(=O)c1c(NC(=O)CCn2nnc3ccccc32)sc2c1CCCC2 | active
8 | C(=N\N(Cc1ccccc1)c1ccccc1)/c1cccnc1 | active
9 | CC(C)OC(=O)c1c(NC(=O)c2ccco2)sc2c1CCCCC2 | active

Same assay, conditions: EP2-expressing cells, PGE2 EC50 shift by compound; measured here: PGE2 EC50 at 6.7 uM compound

Row | SMILES | PGE2 EC50 with compound
10 | Cc1ccc(NCc2n[nH]c(=S)n2Cc2ccccc2)cc1Cl | 1.2 nM
11 | c1ccc(CCc2ccccc2-c2nc(-c3ccccn3)no2)cc1 | 0.32 nM
12 | C#CCN1C(C)=C(C(=O)OC)C(c2cccc([N+](=O)[O-])c2)C(C(=O)OCC)=C1C (centres undefined) | 2.62 nM
13 | CCOC(=O)c1ccccc1NC(=O)CSc1ccccc1 | 1.07 nM
14 | COc1ccc(Oc2cc(C(F)(F)F)nc(N(C)C)n2)cc1 | 0.63 nM
15 | Cc1ccc(-c2nnn(CC(=O)N(Cc3cccs3)C(C(=O)NC3CCCC3)c3ccncc3)n2)cc1 (centres undefined) | 0.72 nM
16 | Cc1ccc(-c2cc3ccccc3nc2N2CCOCC2)cc1 | 1.45 nM
17 | COc1ccc(-c2csc3nc(C)nc(N4CCC(C)CC4)c23)cc1OC | 0.95 nM
18 | CCn1c(-c2ccccc2)c(C(=O)CCl)c2ccccc21 | 1 nM
19 | CCCCC(=O)C1CCN(Cc2ccccc2)CC1 | 0.89 nM
20 | CCn1c2ccc(OC)cc2c2nc3ccccc3nc21 | 2.47 nM
21 | O=C(O)/C=C/c1ccccc1Oc1ccc(Cl)cc1Cl | 1.21 nM
22 | COc1ccc2c(-c3ccccc3)cc(N3CCOCC3)nc2c1 | 0.74 nM
23 | Cc1nnc(SCC(=O)N2c3ccccc3C(C)(c3ccccc3)CC2(C)C)s1 (centres undefined) | 0.85 nM
24 | Cc1ccccc1C(=O)Nc1ccccc1N1CCCCC1 | 1.41 nM
25 | Cc1cc(NC(=O)CN2CCCC(C)C2)n(-c2nc3ccccc3s2)n1 (centres undefined) | 0.75 nM
26 | CCOC(=O)C1CCCN(c2c(C(=O)c3ccccc3)cnc3ccc(OC)cc23)C1 (centres undefined) | 1.15 nM
27 | CC(C)CNC(=O)C(=O)NNC(=O)c1ccco1 | 2.49 nM
28 | CCOC(=O)N1CCC(=C2c3ccc(Cl)cc3CCc3cccnc32)CC1 | 0.95 nM
29 | O=C(CSc1nnc(COc2ccccc2)n1-c1ccccc1)c1ccccc1 | 1.19 nM
30 | Cc1ccc(-c2cccc(C(=O)NCc3ccccc3)n2)c2ccccc12 | 0.32 nM
31 | N#Cc1c(-c2ccco2)nc(SCc2ccc(F)cc2)[nH]c1=O | 2.86 nM
32 | O=C(O)c1cc2cc(F)ccc2[nH]1 | 0.93 nM
33 | COc1ccc(C2CC(c3cccs3)=NN2C(=O)c2ccc(Br)o2)cc1 (centres undefined) | 1.25 nM
34 | COc1cc(C)c(NC(c2ccccc2)c2ccccc2)cc1OC | 1.5 nM
35 | O=C(CNCc1ccccc1Cl)Nc1ccccc1N1CCCCC1 | 0.64 nM
36 | COc1ccc(C(=O)c2cnc3ccccc3c2-c2ccccc2)cc1 | 0.59 nM

Row | SMILES | PGE2 EC50 with compound
37 | Cc1ccc(C)c(CN2C(=O)C(C)Oc3ccc(C)cc32)c1 (centres undefined) | 0.31 nM
38 | O=C(O)c1nc2nc(Cl)c(Cl)nc2[nH]1 | 1.28 nM
39 | Cc1sc2ncnc(Sc3ccccc3C(=O)O)c2c1C | 2.7 nM
40 | CC1=NN(c2ccc(S(=O)(=O)O)cc2)C(=O)/C1=C\c1ccc(Cl)cc1 | 1.07 nM
41 | CCCC(=O)Nc1ccccc1Sc1ncnc2scc(-c3ccccc3)c12 | 1.07 nM
42 | C=CCN1C(=O)/C(=C/c2ccc(O)c(OC)c2)S/C1=N/c1nccs1 | 1.27 nM
43 | COc1ccc(N=Cc2cc(Cc3ccccc3Cl)cc([N+](=O)[O-])c2O)cc1OC | 0.65 nM
44 | CCOC(=O)C1=C(N)OC(C)=C(C#N)C1c1ccco1 (centres undefined) | 1.49 nM
45 | O=C(CN1CCCCCCC1)Nc1ccc(Cl)cc1Cl | 1.11 nM
46 | CCOC(=O)c1sc(NC(=O)C(CC)OC(=O)C(CC(C)C)NC(=O)c2ccccc2)nc1C (centres undefined) | 1.22 nM
47 | C=CCSc1nc2ccsc2c(=O)n1-c1ccccc1 | 2.54 nM
48 | CCOC(=O)c1oc2ccccc2c1NC(=O)c1cccc(OC)c1OC | 0.98 nM
49 | CCOP(=O)(OCC)c1nc(-c2cccc3ccccc23)oc1N1CCCCC1 | 1.11 nM
50 | CCCCc1nc(SCCOC)c2c(=O)n(C)c(=O)n(C)c2n1 | 1.42 nM
51 | O=C(c1cc2sccc2n1Cc1ccccc1)N1CCCc2ccccc21 | 1.3 nM
52 | CCOC(=O)c1ccc(CN(Cc2ccc(C)cc2)S(=O)(=O)c2cccc([N+](=O)[O-])c2)cc1 | 1.62 nM
53 | CCSc1cc(N2CCOCC2)nc(-c2ccccc2)n1 | 1.02 nM
54 | COc1ccc(S(=O)(=O)N2c3cc(C)ccc3OCC2C(C)(C)C)cc1 (centres undefined) | 0.75 nM
55 | CCCCOc1cc(C)nc(NCc2ccccc2)n1 | 1.47 nM
56 | COC(=O)c1ccccc1NC(=O)C(C)Oc1ccccc1 (centres undefined) | 0.9 nM
57 | Cc1ccc(-c2csc3ncnc(N4CCc5ccccc5C4)c23)cc1 | 0.93 nM
58 | CCOc1ccc(-c2nnc3n2N=C(c2ccc(OC)cc2)CS3)cc1 | 0.5 nM
59 | Fc1ccc(Oc2nc(-c3ccccc3)nnc2C(F)(F)F)cc1 | 0.66 nM
60 | C=CCOc1ccc2c(c1)C(=NO)c1cc(OCC=C)ccc1-2 | 0.62 nM
61 | Cc1ccc2cccc(NC(=O)c3ccc(Br)o3)c2n1 | 0.83 nM
62 | C=CCn1c(CCc2cc(C(C)(C)C)c(O)c(C(C)(C)C)c2)n[nH]c1=S | 1.14 nM
63 | Cc1cc2ccccn2c1C(=O)c1ccc(Cl)cc1 | 1.24 nM

Row | SMILES | PGE2 EC50 with compound
64 | CC(C)NC(=S)N/N=C1\CCCCC1C1CCCCC1 (centres undefined) | 1.34 nM
65 | CC(C)c1cc(=O)oc2c3c4c(cc12)CCCN4CCC3 | 1.15 nM
66 | CCc1nc(N2CCCCC2)c2oc3ccccc3c2n1 | 0.8 nM
67 | Cc1ccc(C(=O)Nc2ccccc2N2CCCCC2)cc1[N+](=O)[O-] | 0.66 nM
68 | C=CCC1(C)C(=O)N(c2ccccc2)c2ccccc21 (centres undefined) | 2.93 nM
69 | Cc1ccc(-c2csc(N(CC3CCCO3)C(=O)c3ccco3)n2)cc1 (centres undefined) | 0.87 nM
70 | CCOC(=O)c1c(NC(=O)Cn2nnc3ccccc32)sc2c1CCC(C)C2 (centres undefined) | 1.14 nM
71 | Cc1cc(OCC(=O)OC(C)C)c2c3c(c(=O)oc2c1)CCCC3 | 0.81 nM
72 | O=C(CSc1nnc(Cc2ccccc2)n1Cc1ccco1)NC12CC3CC(CC(C3)C1)C2 | 1.73 nM
73 | O=C(CSCc1cccc(Cl)c1)Nc1ccccc1-c1ccccc1 | 0.74 nM
74 | CC(C)OC(=O)c1c(NC(=O)CCn2nnc3ccccc32)sc2c1CCCC2 | 1 nM
75 | Nc1c(C(=O)NCc2ccccc2)c2nc3ccccc3nc2n1CCCN1CCOCC1 | 1.09 nM
76 | CCCn1c(SCC(=O)Nc2sc(C)c(C)c2C(=O)OCC)nc2c1c(=O)n(C)c(=O)n2C | 1.35 nM
77 | CCOC(=O)c1c(-c2ccc(C)cc2)csc1NC(=O)c1ccc(N2C(=O)CCC2=O)cc1 | 1.5 nM
78 | Cc1cccc2cc(CN(Cc3cccs3)C(c3nnnn3C3CCCC3)C(C)C)c(=O)[nH]c12 (centres undefined) | 0.99 nM
79 | O=c1c2ccccc2c(-c2ccc(Br)cc2)nn1Cc1ccccc1 | 0.78 nM
80 | O=C(c1ccco1)N(Cc1cccc([N+](=O)[O-])c1)c1ccc(Br)cc1 | 1.01 nM
81 | COc1ccc(-c2c(C(C)=O)c(C)nc3sc4c(c23)NC(c2ccccc2)NC4=O)cc1 (centres undefined) | 1.87 nM
82 | CCCCNc1nc(-c2ccccc2)c(C(=O)OCC)cc1C#N | 0.88 nM
83 | CCOC(=O)c1c(C2COc3ccccc3O2)csc1N (centres undefined) | 1.39 nM
84 | CCOP(=O)(OCC)c1nc(-c2ccc(Cl)cc2)oc1NCc1ccccc1 | 0.73 nM
85 | OC1(c2ccc(Br)cc2)CN(c2ccccc2)C2=[N+]1CCS2 (centres undefined) | 1.17 nM
86 | CCC(C)(C)n1nnnc1C(c1ccncc1)N1CCC(Cc2ccccc2)CC1 (centres undefined) | 1.85 nM
87 | N#CCSc1nc2c(c(C3CC=CCC3)c1C#N)CCC2 (centres undefined) | 1.45 nM
88 | O=C1/C(=C/c2cccnc2)SC(=NCc2ccccc2)N1Cc1ccccc1 | 1.29 nM
89 | c1ccc(-c2cc(-c3ccncc3)nc3ccc4ccccc4c23)cc1 | 0.69 nM
90 | C=CCc1cc(C=O)cc(OC)c1OCc1ccc(Cl)cc1 | 0.57 nM

Row | SMILES | PGE2 EC50 with compound
91 | Brc1ccc(-c2ccc(/C=N/Nc3nc(N4CCOCC4)nc(N4CCOCC4)n3)o2)cc1 | 1.01 nM
92 | CCOC(=O)C1=C(N)N2C(=O)C(C)SC2=C(C(=O)OC)C1c1ccccc1OC (centres undefined) | 0.51 nM
93 | CCCCOC(=O)n1c(=S)oc2cc(Cl)ccc21 | 0.85 nM
94 | C(=N\N(Cc1ccccc1)c1ccccc1)/c1cccnc1 | 1.34 nM
95 | COc1ccc(C2=Nn3c(nnc3C3CCCCC3)SC2)cc1OC | 1.58 nM
96 | COc1cccc(/C=N/c2oc(-c3ccccc3)cc2C#N)c1O | 1.17 nM
97 | CC(Sc1ccc2ccccc2n1)C(=O)O (centres undefined) | 3.1 nM and 3.84 nM
98 | Cc1occc1-c1nnc(SCC(=O)Nc2ccccc2N2CCCCC2)n1C | 2.71 nM
99 | Cc1nc2ccccn2c1C(=O)CSc1ccc(Cl)cc1Cl | 1.47 nM
100 | O=C(Nc1nc(-c2cccs2)c(-c2ccccc2)s1)c1ccco1 | 2.42 nM
101 | c1ccc(-c2csc3ncnc(N4CCc5ccccc5C4)c23)cc1 | 1.1 nM
102 | CC(C)OC(=O)c1c(NC(=O)c2ccco2)sc2c1CCCCC2 | 0.74 nM
103 | CCOC(=O)c1c(N)sc(-c2ccccc2)c1C | 2.56 nM
104 | NC(N)=Nc1nc(CSCC/C(N)=N/S(N)(=O)=O)cs1 | 0.78 nM
105 | O=c1cc(N2CCCCC2)c(-c2ccccc2)nn1Cc1c(Cl)cccc1Cl | 0.71 nM
106 | Cc1cc(NC(=O)C2=C(O)c3ccccc3S(=O)(=O)N2C)no1 | 1.8 nM
107 | COC(=O)c1c(C)nc2ccccc2c1-c1ccccc1 | 1.54 nM
108 | C#CCn1c(S(=O)(=O)Cc2ccc(F)cc2)nc(-c2ccccc2)c1-c1ccccc1 | 0.95 nM
109 | O=C(N/N=C/c1ccc[nH]1)c1ccccc1OCc1ccccc1Cl | 2.65 nM
110 | Cc1cccc(C(=O)c2cnc3ccccc3c2-c2ccccc2)c1 | 0.95 nM
111 | CC(=O)Nc1ccc(C2=NN(c3ccccc3)C(c3cccs3)C2)cc1 (centres undefined) | 0.65 nM
112 | Oc1ccc2ccccc2c1Cc1c(O)ccc2ccccc12 | 1.35 nM
113 | CN(C)Cc1ccc(F)cc1Sc1cc(Cl)ccc1Cl | 0.77 nM
114 | COc1ccc(CN2C(=O)CN=C2Nc2cc(C)ccc2C)cc1 | 1.04 nM
